pKi: −log10 of the molar value. Blank lines part the entries; values can stand above or below the compound they belong to.
Experiments:
[1] = biological target: Chymotrypsinogen A (Bos taurus) (UniProt P00766)
[2] = biological target: Chymotrypsinogen A (Bos taurus) (UniProt P00766); assay: Binding affinity towards alpha-chymotrypsin from bovine pancreas; The compound was too insoluble to obtain reliable data
[3] = biological target: Chymotrypsinogen A (Bos taurus) (UniProt P00766); remark: listed apart in the source
[4] = Binding affinity towards alpha-chymotrypsin from bovine pancreas; parameters: species or system Bos taurus
[5] = biological target: Chymotrypsinogen A (Bos taurus) (UniProt P00766); remark: listed apart in the source

K inact [1]: No inactivation
SMILES: O=c1ccc(-c2ccccc2)co1

kinact [3]: 0.0239 min⁻¹
SMILES: O=c1oc(Br)ccc1Cc1ccc2ccccc2c1
Ki [2]: The compound was too insoluble to obtain reliable data

pKi [4]: 3.80
K inact [1]: No inactivation
SMILES: O=c1occcc1-c1ccccc1

K inact [1]: No inactivation
SMILES: O=c1ccc(-c2ccccc2)c(Cl)o1

K inact [5]: 0.00217 min⁻¹
SMILES: CCCCc1ccc(=O)oc1Cl

K inact [1]: No inactivation
SMILES: O=c1oc(Cl)ccc1-c1ccccc1

K inact [5]: 0.00551 min⁻¹
SMILES: CCc1ccc(=O)oc1Cl
